Here are results for one molecule from EPA's ToxValDB 9.5 (doi:10.2903/j.efsa.2018.5211).

Converted amounts (≈) assume the structure as drawn.

One series concerns Neomysis kadiakensis. As to conditions: acute; duration: 48 hours; mortality.
The test system of a further series is Canidae. As to conditions: subchronic; duration: 90 days; dermal; Dog Other; organ weight.
The subject of a further series is Tagia sp. As to conditions: chronic/long-term; duration: 56 days; growth.
The subject of another series is Daphnia magna. As to conditions: chronic/long-term; duration: 21 days; reproduction.
Another series deals with Folsomia candida. As to conditions: chronic/long-term; mortality.
The subject of another series is Apis mellifera. As to conditions: acute, duration: 48 hours, mortality.
The next series relates to Aphidius rhopalosiphi. Kind of series: LR50; higher = less toxic. As to conditions: not reported; mortality.
The next series deals with Typhlodromus pyri. Kind of series: LR50; higher = less toxic. The settings on record: not reported; reproduction.

Turning to `COC[C@H](C)N(C(=O)CCl)c1c(C)csc1C` [Dimethenamid-P], the LC50 in the series on Neomysis kadiakensis came out at 3.2 µg/mL (≈ 11.6 µM); in the series on Oncorhynchus mykiss (acute, duration: 96 hours, mortality), 2.6 µg/mL (≈ 9.43 µM). The no observed adverse effect level (NOAEL) came out at 4.3 mg/kg-day in the series on Canidae; 5 mg/kg-day in the series with Rattus norvegicus (chronic, duration: 2 years, organ weight); 25 mg/kg-day with Rattus norvegicus (developmental, development); 114 mg/kg-day in the series with Colinus virginianus (reproduction developmental). Besides, the NOEC in the series with Oncorhynchus mykiss (chronic/long-term, growth) turned out to be 0.12 mg/L; in the series with Tagia sp., 25.4 mg/kg; in the series with Daphnia magna it was 0.68 mg/L; with Folsomia candida, 12.5 mg/kg. Further, the LD50 was 466 mg/kg-day with Rattus norvegicus (acute, oral, mortality); 1070 mg/kg-day in the series on Colinus virginianus (acute, oral, mortality); 93.8 µg/piece in the series on Apis mellifera (dermal); 119 µg/piece with Apis mellifera (oral, unspecified). The same molecule yielded an LOAEL with Rattus norvegicus (reproduction developmental, food consumption) of 25 mg/kg-day. The molecule also had an LEL in the series on Colinus virginianus (chronic, mortality) of 107 mg/kg-day. Besides, the LR50 in the series with Aphidius rhopalosiphi is 66.3 mL/ha; with Typhlodromus pyri, above 1.4e+06 mL/ha.
